In US6632822B1, “Compounds and therapeutic methods” (The Australian National University, priority 1999, dated 2003):
Read-outs that look alike come from different tables or passages of the source.

Columns and labels:
[1] = test system: Plasmodium falciparum chloroquine-resistant strain (FAF6, derived from ITG2 strain); assay: Growth inhibition of chloroquine-resistant malaria parasite (parasite lactate dehydrogenase viability); type: cell-based
Excerpt: Compounds IA and IB (also referred to herein as calothrixins A and B respectively) were isolated from Calothrix strains (Schlegel et al, J. Appl, Phycol. 10, 471-479 (1998)), extracts of which were screened for activity against HeLa cells and Plasmodium as described in the Examples.
A chloroquine-resistant strain (FAF6, derived from ITG2 strain (Biggs, B. A., Gooze, L., Wycherley, K., Wollish, W., Southwell, B., Leech, J. H., and Brown, G. V (1991). Proc. Natl. Acad. Sci. USA 88, 9171-9174, 1991) of the malaria parasite. Plasmodium falciparum was used. Parasites were cultured in standard media (Trager, W. and Jensen, J. B. (1976). Science 193 673-675) with modifications (Cranmer, S. L., Magowan, C., Lian, J., Coppel, R. L., and Cooke, B. M. (1997). Trans. Roy. Soc. Trop. Med. Hyg. 91, 363-365). At the start of the assay the parasitaemia was 2% and haematocrit was 2%. Parasites were incubated in the presence of inhibitors in 96-well plates for 48 h.
Parasite-derived lactate dehydrogenase activity at the end of the 48 h period was used as a measure of parasite viability in vitro (Makler, M. T., Ries, J. M., Williams, J. A., Bancroft, J. E., Piper, R. C., Gibbins, B. L., and Hinrichs, D. J. (1993). Am. J. Trop. Med. Hyg. 48, 739-741).
The results are illustrated in FIG. 1.

HeLa cells = assay: HeLa cell cytotoxicity, MTT assay; type: cell-based; settings: cultured HeLa cells, 4 days continuous incubation, ± s.d., listed as IB (Calothrixin B)
Protocol: The compounds of Formula IA and IB were also examined for their efficacy in inhibiting the growth of cultured HeLa cells (FIG. 2). The IC50 values are depicted in Table 2.
Exponentially growing HeLa cells were trysinized, centrifuged and resuspended in fresh medium. (RPMI 1640, 20% FCS, 2 mM glutamine). […] Calothrix cell extracts or the purified active compound were prepared in dimethyl sulphoxide, serially diluted in complete medium, then added (100 μL) in quadruplicate to cell suspensions. Cells were incubated continuously with extracts at 37° C. for 4 days. Cytotoxicity was determined using the MTT [3-(4,5dimethylthiazol-2-yl)-2,5-diphenyl-tetrazolium bromide] assay. MTT (50 μL, 2 mg ML^−1) was aliquotted into all wells of the microtitre plate and incubated at 37° C. for 4 h. Plates were inverted to discard medium and formazan crystals were solubilized in 100 μL DMSO with 25 μL glycine buffer (0.1 M glycine in 0.1 M NaCl, pH 10.5). Plates were agitated for 30 s and absorbances determined immediately at […] using a Titertek Multiskan Plus MKII ELISA plate reader.
The results are illustrated in FIG. 2.

| SMILES | IC50 ([1]; Plasmodium falciparum, 48 h) [nM] | IC50 (HeLa cells) [nM] | IC50 ([1]; chloroquine-resistant P. falciparum strain FAF6, 48 h incubation, parasite lactate dehydrogenase activity, ± s.d., listed as IB (Calothrixin B), read-out: IC50) [nM] |
| --- | --- | --- | --- |
| CCN(CC)CCCC(C)Nc1ccnc2cc(Cl)ccc12 (stereo not drawn) [Chloroquine, reference compound] | 180 ± 44 |  |  |
| O=C1c2[nH]c3ccccc3c2C(=O)c2cnc3ccccc3c21 [IB, Calothrixin B] |  | 350 ± 82 | 83 ± 17 |
